Here are results for one compound from article PMC5902452, “In silico optimization of a guava antimicrobial peptide enables combinatorial exploration for peptide design” (Nature Communications, 2018).

In one data set the test system is E. coli ATCC 25922. Briefly: Membrane polarization assay with DiSC3(5). Type of data set: cell-based, Escherichia coli. The following applies: 12.5 µM (twofold above the MIC), 20 min, 37 °C. Here is the method: When the cytoplasmic membrane is intact, the fluorescent probe DiSC3(5) accumulates into the cytoplasmic membrane and then aggregates, causing self-quenching of the fluorescence. In the presence of a membrane-depolarizing agent, DiSC3(5) is released into the medium, leading to an increase in fluorescence that can be monitored over time[59]. Briefly, exponentially growing bacteria were centrifuged (1000 × g, 10 min, 4 °C), washed with PBS, and resuspended in the same buffer to an A630 of 0.1; then 700 µL of bacteria were pre-incubated with 1 µM DiSC3(5) in the dark during 10 min at 37 °C, and then 100 µL of 1 mM KCl were added in order to equilibrate the cytoplasmic and external K^+ concentrations. […] Three independent experiments were performed and results correspond to a representative experiment with negative (PBS) and positive (melittin) controls.

Data set [1] relates to Listeria ivanovii Li4pVS2. The following applies: purified peptide; BHI broth, 18 h, 37 °C, A630; average of three independent experiments in triplicate.
From the text: (§2) Lysogeny Broth (LB) was used for cultures of Acinetobacter baumannii ATCC 19606, Enterococcus faecalis ATCC 29212, Escherichia coli ATCC 25922, Klebsiella pneumoniae ATCC 13883, Pseudomonas aeruginosa ATCC 27853, and S. aureus ATCC 25923. Brain Heart Infusion (BHI) broth was used for cultures of Listeria ivanovii Li 4pVS2 and Streptococcus pyogenes ATCC 19615. Yeast peptone dextrose (YPD) medium was used for Candida species (C. albicans ATCC 90028 and C. parapsilosis ATCC 22019). MH (Mueller Hinton) broth was used for suspend centrifuged culture of bacteria and yeasts in logarithmic phase to an A630 of 0.01 (~10^6 cfu mL^−1), except for S. pyogenes, L. ivanovii, and E. faecalis that were suspended in their respective growth medium. […] A microplate reader (UVM 340, Asys Hitech) was used to monitor the antimicrobial susceptibility by measuring the change in A630. […] Each experiment was performed in triplicate with positive (0.7% formaldehyde) and negative (without peptide) inhibition controls.
The subject of data set [2] is Escherichia coli ATCC 25922. Kind of data set: Antimicrobial activity, MIC by twofold serial dilution. The format is cell-based. Particulars: purified peptide; MH broth, 18 h, 37 °C, A630; average of three independent experiments in triplicate.
From the text: as §2
A further data set has as its system HEK-293 cells. Kind of data set: Cytotoxicity, MTT-based microassay. Type of data set: cell-based, human. Particulars: purified peptide, HEK-293, 72 h, 37 °C, 12.5–200 µM, mean of three independent experiments in triplicate, read-out: Active concentration (inhibitory concentration 50, IC50). How it is done: HEK-293 cells were cultured in DMEM medium, and incubated at 37 °C in a humidified atmosphere of 5% CO2. Cell viability was quantified after peptide incubation using a methylthiazolyldiphenyl-tetrazolium bromide (MTT)-based microassay. […] Then, 10 µL of MTT (5 mg mL^−1 in PBS) was added to each well and the cells were further incubated for 4 h in the dark. The formazan crystals formed by mitochondrial reductases in intact cells are insoluble in aqueous solutions and precipitate. Formazan crystals were dissolved using a solubilization solution (40% dimethylformamide in 2% glacial acetic acid, 16% sodium dodecyl sulfate, pH 4.7) followed by 1 h incubation at 37 °C under shaking (150 rpm). Finally, the absorbance of the resuspended formazan was measured at 570 nm. Data were analyzed with GraphPad Prism® 5.0 software to determine the inhibitory concentration 50 (IC50), which corresponds to the peptide concentration producing 50% cell death. Results were expressed as the mean of three independent experiments performed in triplicate.

For data set [3], the system named is Enterococcus faecalis ATCC 29212. Type of data set: cell-based. The following applies: ATCC 29212, 18 h.
From the text: as §2
For the next data set, the system named is human erythrocytes. Kind of data set: Hemolytic assay. The following applies: SPOT-synthesized crude peptides; human red blood cells in NaCl 0.85%, 1 h, 37 °C; hemoglobin release at 546 nm; highest concentration 200 μg mL−1; 100% of hemolysis was not observed.
In data set [4] the test system is Streptococcus pyogenes ATCC 19615. Type of data set: cell-based. Particulars: ATCC 19615, 18 h.
From the text: as §2
The subject of data set [5] is methicillin-resistant S. aureus (MRSA). Briefly: Antibiofilm assay. Type of data set: cell-based, Staphylococcus aureus. Here is the method: (§1) Overnight cultures of microorganisms [E. coli 0157, methicillin-resistant S. aureus (MRSA), K. pneumoniae 1825971, or C. albicans clinical isolate obtained from a blood culture maintained at LACEN (Laboratório Central de Saúde do Distrito Federal, a Brazilian reference laboratory for clinical isolates in Brasília, Brazil)] grown in LB broth (BD Difco) were diluted 1 in 100 in LB and Todd-Hewitt broth (BD Difco) or BM2 minimal medium [62 mM potassium phosphate buffer, pH 7.0, 7 mM (NH4)2SO4, 2 mM MgSO4, 10 μM FeSO4, 0.5% glucose], and 100 μL per well was added into 96-well round-bottom microplates. Absorbance at 600 nm was used to assess the planktonic cell growth. Non-adherent planktonic cells were removed from microtiter wells and washed twice with deionized water. Adherent cells were stained with 0.1% crystal violet for 20 min. The microplate wells were washed twice with deionized water, air dried, and solubilized with 110 μL of 70% ethanol. […] Biofilm formation was assessed by measuring the absorbance at 600 nm using a microplate reader (Bio-Tek Instruments, Inc., USA). The microdilution method for cationic peptides was used to determine the MIC for planktonic cells. Three biological replicates were performed for each experiment involving eight technical replicates.

Data set [6] deals with Acinetobacter baumannii ATCC 19606. Kind of data set: Antimicrobial activity, MIC by twofold serial dilution. The format is cell-based. The following applies: purified peptide; MH broth, 18 h, 37 °C, A630; average of three independent experiments in triplicate.
From the text: as §2
The test system of another data set is E. coli 0157. Kind of data set: Antibiofilm assay. Type of data set: cell-based, Escherichia coli. How it is done: as §1
The subject of data set [7] is Staphylococcus aureus ATCC 25923. The format is cell-based. Particulars: ATCC 25923, 18 h.
From the text: as §2

Molecules are shown by their SMILES. Peptide text beside a SMILES is read from it. Some results are limits rather than exact numbers.

Method for human erythrocytes: Fresh human venous blood was collected from volunteers in Vacutainer collection tubes containing sodium heparin as an anticoagulant (BD Biosciences, Franklin Lakes, NJ). The blood was centrifuged applying 151 × g force (1500 rpm) and the serum was removed and the blood cells were replaced and washed three times with the same volume of sterile NaCl 0.85% solution. Concentrated red blood cells were diluted tenfold in NaCl 0.85% solution and then exposed at twofold dilutions of peptides for 1 h at 37 °C, at identical concentrations used for antimicrobial assays, in the ratio of 1:1 (v/v), achieving a final volume of 100 μL. The assay was carried out in 96-well polypropylene microtiter plates. The positive control wells contained 1% of Triton X-100, representing 100% cell lysis, and negative control wells contained sterile saline. Hemoglobin release was monitored chromogenically at 546 nm using a microplate reader.

With `CC[C@H](C)[C@H](NC(=O)[C@H](CCCNC(=N)N)NC(=O)[C@H](Cc1ccc(O)cc1)NC(=O)CNC(=O)[C@H](Cc1ccc(O)cc1)NC(=O)[C@H](CCCNC(=N)N)NC(=O)[C@H](CC(C)C)NC(=O)[C@H](C)NC(=O)[C@H](CCC(N)=O)NC(=O)[C@H](CCC(=O)O)NC(=O)[C@@H](NC(=O)[C@H](CCC(N)=O)NC(=O)[C@H](CCCNC(=N)N)NC(=O)[C@H](CCSC)NC(=O)[C@H](Cc1ccc(O)cc1)NC(=O)[C@H](CCC(N)=O)NC(=O)[C@@H](N)CCCNC(=N)N)[C@@H](C)CC)C(=O)N[C@@H](CO)C(=O)N[C@@H](CCCNC(=N)N)C(=O)N[C@@H](CCCNC(=N)N)C(N)=O` [Guavanin 2] (H-RQYMRQIEQALRYGYRISRR-NH2), the “DiSC3(5) fluorescence change (membrane potential)” value in the data set with E. coli ATCC 25922 is “decrease in DiSC3(5) fluorescence”. For the same compound, the “Active concentration (MIC)” value in [1] is listed as 50 µM; in data set [2], 6.25 µM; in [3] it was greater than 100 µM; in data set [4] it was 50 µM; in [6] it was 6.25 µM; in data set [7], 100 µM. In addition, the IC50 in the data set with HEK-293 cells is greater than 200 µM. The Hemolysis with human erythrocytes is greater than 200 µg/mL. Also, the antibiofilm activity entry (in data set [5]; with E. coli 0157) was “only able to reduce C. albicans biofilms” each time.
